Experimental findings from patent publication US7906547B2, “Azabicylic compounds, a process for their preparation and pharmaceutical compositions containing them” (Les Laboratoires Servier, priority 2008, dated 2011) are described below.

For test [1], the system named is NMRI mouse. Nature of the test: Forced swimming test in the NMRI mouse. The test is classed as in vivo. The following applies: 30 mg/kg IP 30 minutes before test, final 4 minutes of 6. As to the method:
The forced swimming test is very widely used for detecting the antidepressant properties of compounds (Porsolt et al., Arch. Int. Pharmacodyn., 1977, 229, 327-336). The animals are placed for 6 minutes in cylinders filled with water (14 cm) and the immobility time is measured for the final 4 minutes by a video-tracking system. The compounds of the present invention or their carriers are administered by the intraperitoneal route 30 minutes before the mice are placed in the cylinder.

For test [2], the system named is Wistar rat. Nature of the test: Electroencephalogram recordings in the awake Wistar rat. It counts as in vivo. The following applies: 3 mg/kg IP. Here is the method: Electrodes are chronically implanted in adult male Wistar rats, being located at the surface of the frontal and parietal cortex. Cortical electroencephalogram (EEG) recordings are made in the rats placed in cages in a sound-proofed room. The compounds and carriers are administered in randomised manner by the intraperitoneal route at 10 o'clock on the same days with a minimum of 3 days between each administration, allowing each rat to be used as its own control. The absolute power of the slow delta activities (1-4 Hz), which predominate during slow sleep and disappear during wakefulness and paradoxical sleep, is averaged over successive periods of 30 minutes. Over 30 minutes, high and low values for the power of the slow delta activities are signs of […], respectively.

In test [3] the test system is Wistar rat. In words: Social recognition in the Wistar rat. The following applies: second encounter after 2 hours. It counts as in vivo. An excerpt: Initially described in 1982 (J. Comp. Physiol., 1982, 96, 1000-1006), the social recognition test has subsequently been proposed by various authors (Psychopharmacology, 1987, 91, 363-368; Psychopharmacology, 1989, 97, 262-268) for studying the mnemocognitive effects of new compounds. The test is based on the natural expression of the olfactory memory of the rat and its natural tendency to forget and allows evaluation of memorisation, by recognition of a young congeneric animal, by an adult rat. A young rat (21 days), taken at random, is placed for 5 minutes in the cage housing an adult rat. With the aid of a video device, the experimenter observes the social recognition behaviour of the adult rat and measures its overall duration. The young rat is then removed from the adult rat's cage and is placed in its own cage until the second introduction. The adult rat is given the compound under test by the intraperitoneal route and, after 2 hours, is again brought into the presence (5 minutes) of the young rat. The social recognition behaviour is then observed again and its duration measured. The assessment criterion is the difference (T2−T1), expressed in seconds, between the “recognition” times of the 2 encounters.

The subject of test [4] is NMRI mouse. In words: Tail suspension test in the NMRI mouse. It counts as in vivo. The following applies: 10 mg/kg IP 24 hours and 30 minutes before suspension, 6 minutes. Here is the method: The tail suspension test in the mouse (Porsolt et al., Arch. Int. Pharmacodyn., 1987, 288, 11) enables detection of psychopharmacological properties of compounds. NMRI mice are suspended by the tail, with the aid of a piece of adhesive tape, from a hook for 6 minutes: the immobility time is measured automatically with the aid of movement sensors. The animals are treated, by the intraperitoneal route, with the compounds of the invention or their carriers 24 hours and 30 minutes before they are suspended.

The next test relates to Sprague-Dawley rat. In words: Object recognition in the Sprague-Dawley rat. Particulars: 0.3 mg/kg PO, 60 minutes before each session, 24 hours between sessions. It counts as in vivo. An excerpt:
The object recognition test in the Sprague-Dawley rat (Behav. Brain Res., 1988, 31, 47-59) is based on the spontaneous exploratory activity of the animal and has the characteristics of episodic memory in humans. This memory test is sensitive to ageing (Eur. J. Pharmacol., 1997, 325, 173-180) and to cholinergic dysfunctions (Pharm. Biochem. Behav. 1996, 53(2), 277-283) and is based on the differences in the exploration of 2 objects of fairly similar shape—one familiar, the other new. Prior to the test, the animals are habituated to the environment (an enclosure without an object). In the course of a first session, the rats are placed (3 minutes) in the enclosure, in which there are 2 identical objects. The duration of exploration is measured for each object. In the course of the second session (3 minutes), 24 hours later, 1 of the 2 objects is replaced by a new object. The duration of exploration is measured for each object. The assessment criterion is the difference, Delta, expressed in seconds, between the exploration times for the new object and for the familiar object in the course of the second session.

In test [5] the test system is NMRI mouse. In words: Marble-burying test in the NMRI mouse. It counts as in vivo. Particulars: 30 mg/kg IP 30 minutes before test, 30 minutes period. As to the method:
The spontaneous marble-burying behaviour in the mouse is a very sensitive empirical test for antidepressant compounds (Sanchez and Meier, Psychopharmacology, 1997; 129: 197-205; Nicolas and Prinssen, Eur. J. Pharmacol., 2006, 547: 106-115). The mice are placed in individual cages in which there are 24 marbles and the number of marbles buried by each animal is determined for a period of 30 minutes. The animals are treated by the intraperitoneal route with the compounds of the present invention or their carriers 30 minutes before placing the animals in the cage containing marbles.

The target of test [6] is T1, type H3 central histamine receptors (Mus musculus, UniProt P58406).
T1 construct: the brains are removed, frozen in liquid nitrogen, weighed and homogenised; from tissue; host or cells: brain of living NMRI mice (oral dosing)
In words: Cerebral levels of Nτ-methylhistamine in the NMRI mouse (ex vivo H3 antagonist activity). Particulars: one hour after treatment, vs carrier. Here is the method: The purpose of this study, which was carried out in accordance with the method of Taylor et al. (Biochem. Pharm., 1992, 44, 1261-1267), is to evaluate the ex vivo activity of the compounds of the present invention as antagonists of type H3 central histamine receptors. […] An increase in the cerebral concentrations of N^τ-methylhistamine indicates an increase in the turn-over of histamine by blockage of the type H3 central histamine receptors.
NMRI mice (18-20 g) are treated with compounds of the present invention or with their carrier (20 ml/kg) by the oral route. One hour after the pharmacological treatment, the animals are sacrificed; the brains are removed, frozen in liquid nitrogen, weighed and homogenised in 0.1N HClO4 at 4° C. The homogenised products are centrifuged (15 000 g, 17 min, 4° C.). The supernatants are recovered and divided into aliquots. The aliquots are frozen in liquid nitrogen and stored at −80° C. until they are analysed.
Determination of the cerebral levels of N^τ-methylhistamine is carried out by capillary electrophoresis. The tissue levels of N^τ-methylhistamine are expressed in μg/g of fresh brain. The comparison of the cerebral levels of N^τ-methylhistamine between animals treated with the carrier (controls) and animals treated with compounds of the present invention is carried out by single-factor variance analysis followed, if necessary, by a complementary analysis (Dunnett's test).

In test [7] the test system is Wistar rat. In words: Interaction with barbital in the Wistar rat. The test is classed as in vivo. The following applies: 30 mg/kg PO 30 minutes before barbital 170 mg/kg IP, sleep measured for 4 hours. Here is the method: The objective of this test is to determine the anti-sedative, awakening and/or anti-hypnotic properties of the compounds of the present invention. The rats are placed in individual cages and are given an injection of barbital (170 mg/kg IP). The duration of sleep is then measured for 4 hours after the injection of barbital, determined on the basis of loss of the righting reflex. The compounds of the invention or their carriers are administered by the oral route 30 minutes before the administration of barbital.

Structures can show the parent of a compound that is named as a salt.

T1 sequence (P58406 whole entry): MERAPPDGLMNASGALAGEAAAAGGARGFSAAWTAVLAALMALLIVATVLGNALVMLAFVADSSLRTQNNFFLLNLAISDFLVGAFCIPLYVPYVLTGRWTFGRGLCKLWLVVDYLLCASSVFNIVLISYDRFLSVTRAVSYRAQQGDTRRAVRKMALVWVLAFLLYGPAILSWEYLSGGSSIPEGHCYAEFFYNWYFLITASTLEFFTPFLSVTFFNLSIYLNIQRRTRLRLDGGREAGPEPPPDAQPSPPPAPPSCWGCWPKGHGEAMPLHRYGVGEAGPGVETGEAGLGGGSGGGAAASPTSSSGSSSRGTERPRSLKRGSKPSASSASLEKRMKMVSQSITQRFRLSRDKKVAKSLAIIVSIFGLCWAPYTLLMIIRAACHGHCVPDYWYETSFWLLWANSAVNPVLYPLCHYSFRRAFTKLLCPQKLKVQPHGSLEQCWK

In turn, `NC(=O)c1ccc(OCCCN2C[C@H]3C[C@H]3C2)cc1` [Example 1, 4-{3-[(1R,5S)-3-Azabicyclo[3.1.0]hex-3-yl]propoxy}-benzamide hydrochloride] gave a reduction in immobility in the test with NMRI mouse [1] of 76%. Besides, the “duration of the reduction in the power of the slow delta waves” value in the test with Wistar rat [2] is 120 min. Besides, the “difference (T2−T1) between the recognition times of the 2 encounters” value in the test with Wistar rat [3] (1 mg/kg IP) amounted to 21 s; in the test on Wistar rat [3] (3 mg/kg IP) it was 26 s. For the same molecule, the “reduction in the immobility time” value in the test with NMRI mouse [4] came out at 59%. The “difference, Delta, between exploration times for the new object and the familiar object (second session)” value with Sprague-Dawley rat was around 6 s. Further, the “decrease in the number of balls buried” value with NMRI mouse [5] is recorded as 48%.

As for `CC(=O)N(C)c1ccc(OCCCN2C[C@H]3C[C@H]3C2)cc1.Cl` [Example 13, N-(4-{3-[(1R,5S)-3-Azabicyclo[3.1.0]hex-3-yl]propoxy}phenyl)-N-methylacetamide hydrochloride], the “increase in endogenous cerebral concentrations of Nτ-methylhistamine” value (shortened to “increase”) in test [6] (10 mg/kg PO) was determined as 135%. For the same molecule, the “increase” value in test [6] (30 mg/kg PO) is 303%. In the test on Wistar rat [2], the “duration of the reduction in the power of the slow delta waves” value was 120 min and the “effect on power of the slow delta waves (1-4 Hz), cortical EEG” value is recorded as “significant reduction”. Also, the “reduction in the immobility time” value in the test on NMRI mouse [4] amounted to 53%.

Regarding `CC(=O)Nc1ccc(OCCN2C[C@H]3C[C@H]3C2)cc1` [Example 5, N-(4-{2-[(1R,5S)-3-Azabicyclo[3.1.0]hex-3-yl]ethoxy}phenyl)acetamide], the reduction in immobility in the test with NMRI mouse [1] is on record as 32%. Also, the “increase” value in test [6] (10 mg/kg PO) was determined as 109%; in test [6] (30 mg/kg PO) it was 200%. Further, the “reduction of the duration of sleeping caused by barbital” value (“reduction of the duration … by barbital” below) with Wistar rat [7] is recorded as −80%. The “reduction in the immobility time” value in the test on NMRI mouse [4] came to 64%. Moreover, in the test on NMRI mouse [5], the “decrease in the number of balls buried” value was 49%.

With `CC(=O)Nc1ccc(OCCCCN2C[C@H]3C[C@H]3C2)cc1` [Example 6, N-(4-{4-[(1R,5S)-3-Azabicyclo[3.1.0]hex-3-yl]butoxy}phenyl)acetamide], the “increase” value in test [6] (10 mg/kg PO) stood at 106%; in test [6] (30 mg/kg PO), 210%.

As for `NC(=O)c1ccc(OCCN2C[C@H]3C[C@H]3C2)cc1` [Example 2, 4-{2-[(1R,5S)-3-Azabicyclo[3.1.0]hex-3-yl]ethoxy}benzamide], the “decrease in the number of balls buried” value with NMRI mouse [5] worked out at 99%.

For `COCC(=O)Nc1ccc(OCCN2C[C@H]3C[C@H]3C2)cc1` [Example 15, N-(4-{2-[(1R,5S)-3-Azabicyclo[3.1.0]hex-3-yl]ethoxy}phenyl)-2-methoxyacetamide], the reduction in immobility in the test with NMRI mouse [1] stood at 34%. Besides, the “reduction of the duration … by barbital” value in the test with Wistar rat [7] is recorded as −76%. Further, the “reduction in the immobility time” value in the test on NMRI mouse [4] worked out at 77%. In the test with NMRI mouse [5], the “decrease in the number of balls buried” value was determined as 83%.

Turning to `COCC(=O)Nc1ccc(OCCCN2C[C@H]3C[C@H]3C2)cc1` [Example 14, N-(4-{3-[(1R,5S)-3-Azabicyclo[3.1.0]hex-3-yl]propoxy}phenyl)-2-methoxyacetamide], the “increase” value in test [6] (10 mg/kg PO) worked out at 124%; in test [6] (30 mg/kg PO), 266%. Besides, the “reduction in the immobility time” value in the test on NMRI mouse [4] is listed as 36%.

As for `CN(C)C(=O)c1ccc(OCCCCN2C[C@H]3C[C@H]3C2)cc1.O=C(O)C(=O)O` [Example 8, 4-{4-[(1R,5S)-3-Azabicyclo[3.1.0]hex-3-yl]butoxy}-N,N-dimethyl-benzamide oxalate], the “reduction of the duration … by barbital” value with Wistar rat [7] is given as −79%.

As to `CNC(=O)c1ccc(OCCCCN2C[C@H]3C[C@H]3C2)cc1` [Example 12, 4-{4-[(1R,5S)-3-Azabicyclo[3.1.0]hex-3-yl]butoxy}-N-methylbenzamide], the “reduction of the duration … by barbital” value in the test with Wistar rat [7] is on record as −55%.

Regarding `CC(=O)Nc1ccc(OCCCN2C[C@H]3C[C@H]3C2)cc1` [Example 4, N-(4-{3-[(1R,5S)-3-Azabicyclo[3.1.0]hex-3-yl]propoxy}phenyl)acetamide], the “reduction in the immobility time” value in the test with NMRI mouse [4] is 36%.
